Data: PubChem BioAssay AID1671212

Target: Casein kinase I isoform gamma-3 (Homo sapiens) (UniProt Q9Y6M4)
Experiment: PubChem AID 1671212
Conditions: Z'-LYTE FRET peptide phosphorylation, recombinant CSNK1G3

Casein kinase I isoform gamma-3 (Homo sapiens), sequence (Q9Y6M4 whole entry, looked up, canonical isoform): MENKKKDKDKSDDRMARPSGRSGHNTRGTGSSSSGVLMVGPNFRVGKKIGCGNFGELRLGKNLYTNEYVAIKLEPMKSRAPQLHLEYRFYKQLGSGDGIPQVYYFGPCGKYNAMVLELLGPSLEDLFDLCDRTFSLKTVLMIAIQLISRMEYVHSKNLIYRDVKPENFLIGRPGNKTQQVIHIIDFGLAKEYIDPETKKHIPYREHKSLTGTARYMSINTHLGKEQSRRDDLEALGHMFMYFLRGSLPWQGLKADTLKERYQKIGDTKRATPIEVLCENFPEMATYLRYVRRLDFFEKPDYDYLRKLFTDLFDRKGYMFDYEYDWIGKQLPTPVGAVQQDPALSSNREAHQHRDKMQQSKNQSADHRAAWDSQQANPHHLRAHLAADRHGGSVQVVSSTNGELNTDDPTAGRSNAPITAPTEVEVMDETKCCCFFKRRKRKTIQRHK

Brc1c(Br)c(Br)c2n[nH]nc2c1Br
IC50: 69.9 µM
